Publication PMC12040169 (PLOS Biology, 2025)

Assay: in vitro
Settings: human, hela cells, % viability

Row | SMILES | viability at 28.5 h, 10 µM
1 | Cc1cc2c(s1)c1cnn(Cc3cccnc3)c(=O)c1n2C [CBK284154] | 79.1%
2 | Cc1cc2c(s1)c1cnn(CC(=O)NC(C)C)c(=O)c1n2C [CBK284155] | 79.7%
3 | CCN(CC)C(=O)Cn1ncc2c3sc(C)cc3n(C)c2c1=O [CBK284156] | 92.9%
4 | O=C(c1nccs1)C1CCN(C(=O)c2cccs2)CC1 [CBK284159] | 106%
5 | O=C(c1nccs1)C1CCN(C(=O)Cc2ccc(Cl)cc2)CC1 [CBK284160] | 84.1%
6 | O=C(c1nccs1)C1CCN(C(=O)Cc2ccccc2Cl)CC1 [CBK284162] | 87.4%
7 | C=CCn1c2cc(C)sc2c2cnn(CC(=O)OC)c(=O)c21 [CBK284166] | 89.3%
8 | CCN(CC)C(=O)Cn1ncc2c3sc(C)cc3n(CC)c2c1=O [CBK284167] | 99.3%
9 | CCn1c2cc(C)sc2c2cnn(Cc3cccnc3)c(=O)c21 [CBK284169] | 86.6%
10 | CCn1c2cc(C)sc2c2cnn(CC(=O)NC(C)C)c(=O)c21 [CBK284172] | 85.8%
11 | CCn1c2cc(C)sc2c2cnn(CC(=O)N(C)C)c(=O)c21 [CBK284173] | 85%
12 | O=C(c1nccs1)C1CCN(C(=O)c2ccccc2F)CC1 [CBK284174] | 93.3%
13 | CC(C)(C)C(=O)N1CCC(n2nc(-c3cccs3)ccc2=O)CC1 [CBK284182] | 92.9%
14 | CCc1nn(CC(=O)NC(C)(C)C)c(=O)c2cc3ccsc3n12 [CBK284183] | 105%
15 | Cc1cc2nccc(C3CCCN(C(=O)c4ccccc4F)C3)n2n1 (stereo not shown) [CBK284184] | 97.2%
16 | CCOC(=O)Cn1ncc2c3sc(C)cc3n(CC)c2c1=O [CBK284185] | 87.1%
17 | Cc1cc2c(s1)c1cnn(CC(=O)N3CCCCC3)c(=O)c1n2C [CBK284187] | 82.3%
18 | Cc1cc2c(s1)c1cnn(Cc3ccncc3)c(=O)c1n2C [CBK284188] | 86.4%
19 | CC1CCN(C(=O)Cn2ncn3c(cc4ccsc43)c2=O)CC1 [CBK284190] | 101%
20 | CC1CCCC(C)N1C(=O)Cn1ncn2c(cc3ccsc32)c1=O (stereo not shown) [CBK284191] | 110%
21 | CCCc1nn(CC(=O)N(CC)CC)c(=O)c2cc3ccsc3n12 [CBK284192] | 81.3%
22 | CCCc1nn(CC(=O)NC2CCC2)c(=O)c2cc3ccsc3n12 [CBK284194] | 89.1%
23 | O=C(Cn1ncn2c(cc3ccsc32)c1=O)N1CCCCC1 [CBK284195] | 85.2%

Row | SMILES | viability at 28.5 h, 10 µM
24 | CC1CCCCC1NC(=O)Cn1ncn2c(cc3ccsc32)c1=O (stereo not shown) [CBK284196] | 91.8%
25 | O=C(Cn1ncn2c(cc3ccsc32)c1=O)NCc1cccs1 [CBK284197] | 90.3%
26 | CC1CCCCN1C(=O)Cn1ncn2c(cc3ccsc32)c1=O (stereo not shown) [CBK284201] | 92.1%
27 | O=c1ccc(-c2ccccc2)nn1CC1CCNCC1 [CBK284203] | 98.6%
28 | COC(=O)CN1N=C(C(C)(C)C)Cn2c(cc3ccccc32)C1=O [CBK284204] | 95.5%
29 | O=C(c1nccs1)C1CCN(C(=O)CC2CCCC2)CC1 [CBK284207] | 107%
30 | C#CCN1N=C(c2ccc(OC)cc2)Cn2c(cc3sccc32)C1=O [CBK284209] | 91.2%
31 | CC(C)(C)C(=O)N1CCC(c2[nH]ncc2-c2ccncc2)CC1 [CBK284211] | 88.2%
32 | O=C(C1CC=CCC1)N1CCC(c2[nH]ncc2-c2ccncc2)CC1 (stereo not shown) [CBK284212] | 84%
33 | CCn1c2cc(C)oc2c2cnn(CC(=O)N3CCCCC3)c(=O)c21 [CBK284220] | 90.2%
34 | Cc1cc2c(s1)c1cnn(CC(=O)NCC3CC3)c(=O)c1n2C [CBK284222] | 91.2%
35 | C#CCn1ncc2c3sc(C)cc3n(CC)c2c1=O [CBK284225] | 89.5%
36 | CCc1nn2c(C3CCNCC3)ccnc2c1-c1cccs1 [CBK284226] | 80.4%
37 | Cc1cc2c(s1)c1cnn(Cc3ccccn3)c(=O)c1n2C [CBK284227] | 65.4%
38 | Cc1cc2c(o1)c1cnn(CC(=O)N3CCCC3)c(=O)c1n2C(C)C [CBK284232] | 89%
39 | O=C(c1nc2ccccc2s1)C1CCN(C(=O)c2ccco2)CC1 [CBK284234] | 83.6%
40 | O=c1[nH]nc2c3c4c(sc3ncn12)CCCC4 [CBK284235] | 56.8%
41 | Cc1cc2c(o1)c1cnn(CC(=O)N3CCC(C)CC3)c(=O)c1n2C [CBK284236] | 83.9%
42 | CC(C)C(=O)N1CCC(c2[nH]ncc2-c2ccncc2)CC1 [CBK284237] | 79.6%
43 | O=C(C1CCCCC1)N1CCC(n2nc(C3CC3)ccc2=O)CC1 [CBK284240] | 90.7%
44 | CC(C)(C)C(=O)N1CCC(n2nc(C3CC3)ccc2=O)CC1 [CBK284242] | 84.6%
45 | CC(C)C(=O)N1CCC(n2nc(-c3ccco3)ccc2=O)CC1 [CBK284244] | 83.8%
46 | CC(=O)N1CCC[C@H]1Cn1nc(-c2cccs2)ccc1=O [CBK284249] | 78.1%
